According to patent US10316035B2, “Triazolopyridine inhibitors of myeloperoxidase” (BRISTOL-MYERS SQUIBB COMPANY, priority 2015, dated 2019):

These molecules were tested against T1, myeloperoxidase (MPO) (Homo sapiens, UniProt P05164) (assay: MPO peroxidation assay (Amplex Red assay)). Conditions: not given.
T1 sequence (P05164 49-745): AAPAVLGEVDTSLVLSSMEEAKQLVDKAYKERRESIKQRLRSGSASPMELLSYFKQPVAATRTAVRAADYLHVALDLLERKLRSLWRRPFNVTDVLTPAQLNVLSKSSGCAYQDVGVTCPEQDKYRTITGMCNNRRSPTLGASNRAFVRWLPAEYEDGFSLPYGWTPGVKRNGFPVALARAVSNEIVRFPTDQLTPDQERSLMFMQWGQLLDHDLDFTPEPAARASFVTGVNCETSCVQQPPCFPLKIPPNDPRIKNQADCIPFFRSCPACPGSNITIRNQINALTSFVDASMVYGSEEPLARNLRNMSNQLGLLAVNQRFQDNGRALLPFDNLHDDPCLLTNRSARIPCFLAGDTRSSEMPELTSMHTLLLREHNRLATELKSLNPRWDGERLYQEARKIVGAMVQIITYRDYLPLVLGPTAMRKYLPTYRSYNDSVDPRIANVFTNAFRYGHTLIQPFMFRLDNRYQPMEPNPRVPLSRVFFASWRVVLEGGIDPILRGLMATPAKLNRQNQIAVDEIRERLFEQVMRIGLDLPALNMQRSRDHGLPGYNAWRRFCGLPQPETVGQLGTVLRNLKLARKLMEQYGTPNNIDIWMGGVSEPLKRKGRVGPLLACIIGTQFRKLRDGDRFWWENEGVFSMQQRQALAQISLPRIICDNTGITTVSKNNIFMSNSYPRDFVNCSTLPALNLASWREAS
Format: biochemical
Experimental: MPO Peroxidation Assay (Amplex Red Assay)
MPO peroxidation activity was measured in 100 mM KPi (pH 7.4) by utilizing the non-fluorescent reagent Amplex Red (Invitrogen catalog # A12222) which can be oxidized to the highly fluorescent resorufin. Amplex Red is oxidized by the peroxidase action of MPO to resorufin. Reactions were carried out in 50 μL total volume by adding a 25 μL mixture of 200 pM myeloperoxidase and 40 nM H2O2(Sigma #349887) to 100 nL inhibitor in 100% DMSO in a 384 well Perkin Elmer Optiplate. Enzyme and compound were preincubated for ten minutes at room temperature.
After the ten minute preincubation, 25 μL of an Amplex Red mixture containing 200 μM Amplex Red and 10 mM H2O2 was added to the plate. Kinetic determinations were carried out immediately on a Perkin Elmer Envision (15 minute kinetic read, Ex: 535 nm, Em: 590 nm).
IC50 values were calculated by determining the slope of the linear portion of the kinetic trace ([…]), and using that calculated slope to determine % inhibition occurring at each concentration of inhibitor using the following equation:
[formula] where A=minimal Y value (activity level of inhibited sample), B=maximal Y value (activity level of uninhibited sample), C=Log IC50, D=Hill Slope, x=concentration of inhibitor. MPO Chlorination Assay (APF Assay)

Row | IC50 | SMILES
1 | 1 to 100 nM | Nc1cc(OCc2ccccc2F)c2nn[nH]c2n1 [Example 55, 7-(2-Fluorobenzyloxy)-3H-[1,2,3]triazolo[4,5-b]pyridin-5-amine]

Same assay, conditions: MPO peroxidation, potency range class; read-out: Amplex Red IC50

Row | SMILES | IC50
2 | Nc1cc(OCc2cc(C(=O)N3CC[C@@H](O)C3)ccc2F)c2nn[nH]c2n1 [Example 166, (R)-(3-((5-amino-3H-[1,2,3]triazolo [4,5-b]pyridin-7-yloxy)methyl)-4-fluorophenyl)(3-hydroxypyrrolidin-1-yl)methanone] | 101 to 999 nM
3 | Nc1cncc(-c2ccc(F)c(COc3cc(N)nc4[nH]nnc34)c2Cl)c1 [Example 343, 7-((3-(5-aminopyridin-3-yl)-2-chloro-6-fluorobenzyl)oxy)-3H-[1,2,3]triazolo[4,5-b] pyridin-5-amine] | 1 to 100 nM
4 | Nc1cc(OCc2ccc(C(=O)Nc3ccccc3)cc2Cl)c2nn[nH]c2n1 [Example 213, 4-((5-amino-3H-[1,2,3]triazolo[4,5-b]pyridin-7-yloxy)methyl)-3-chloro-N-phenylbenzamide] | 1 to 100 nM
5 | Nc1cc(OCc2cc(C(=O)NCc3ccccc3)ccc2Cl)c2nn[nH]c2n1 [Example 173, 3-((5-amino-3H-[1,2,3]triazolo [4,5-b]pyridin-7-yloxy)methyl)-N-benzyl-4-chlorobenzamide] | 1 to 100 nM
6 | Nc1cc(OCc2cc(C(=O)NC3CCS(=O)(=O)C3)ccc2Cl)c2nn[nH]c2n1 (stereo not drawn) [Example 193, 3-((5-amino-3H-[1,2,3]triazolo [4,5-b]pyridin-7-yloxy)methyl)-4-chloro-N-(1,1-dioxidotetrahydrothien-3-yl)benzamide] | 101 to 999 nM
7 | Nc1cc(OCc2c(F)cc(-c3ccc(OCc4ccccc4)nc3)cc2F)c2nn[nH]c2n1 [Example 339, 7-((4-(6-(benzyloxy)pyridin-3-yl)-2,6-difluorobenzyl)oxy)-3H-[1,2,3]triazolo[4,5-b] pyridin-5-amine] | 101 to 999 nM
8 | CCN(C)C(=O)c1ccc(-c2cccc(COc3cc(N)nc4[nH]nnc34)c2)cc1F [Example 116, 3′-((5-Amino-3H-[1,2,3]triazolo[4,5-b]pyridin-7-yloxy)methyl)-N-ethyl-3-fluoro-N-methylbiphenyl-4-carboxamide] | 101 to 999 nM
9 | Nc1cc(OCc2cccc(-c3ccc(NC(=O)c4ccccc4)cc3)c2)c2nn[nH]c2n1 [Example 100, N-(3′-((5-Amino-3H-[1,2,3]triazolo[4,5-b]pyridin-7-yloxy)methyl)biphenyl-4-yl)benzamide] | 1 to 100 nM
10 | CCC(F)(F)C(Oc1cc(N)nc2[nH]nnc12)c1ccccc1OC (racemic) [Example 136, 7-(2,2-Difluoro-1-(2-methoxyphenyl)butoxy)-3H-[1,2,3]triazolo[4,5-b]pyridin-5-amine] | 101 to 999 nM
11 | Nc1cc(OCc2cc(C(=O)NCCCN3CCCC3=O)ccc2F)c2nn[nH]c2n1 [Example 156, 3-((5-amino-3H-[1,2,3]triazolo[4,5-b]pyridin-7-yloxy)methyl)-4-fluoro-N-(3-(2-oxopyrrolidin-1-yl)propyl) benzamide] | 101 to 999 nM
12 | CN(C(=O)c1ccc(COc2cc(N)nc3[nH]nnc23)c(Cl)c1)C1CCCCC1 [Example 223, 4-((5-amino-3H-[1,2,3]triazolo[4,5-b]pyridin-7-yloxy)methyl)-3-chloro-N-cyclohexyl-N-methylbenzamide] | 101 to 999 nM
13 | Nc1cc(OCc2cc(C(=O)N3CCC(O)C3)ccc2Cl)c2nn[nH]c2n1 (stereo not drawn) [Example 176, (3-((5-amino-3H-[1,2,3]triazolo [4,5-b]pyridin-7-yloxy)methyl)-4-chlorophenyl)(3-hydroxypyrrolidin-1-yl)methanone] | 101 to 999 nM
14 | N#Cc1cc(-c2ccc(N3CCNCC3)nc2)ccc1COc1cc(N)nc2[nH]nnc12 [Example 327, 2-(((5-amino-3H-[1,2,3]triazolo[4,5-b]pyridin-7-yl)oxy)methyl)-5-(6-(piperazin-1-yl)pyridin-3-yl)benzonitrile] | 1 to 100 nM
15 | N#Cc1cc(-c2ccc(F)nc2)ccc1COc1cc(N)nc2[nH]nnc12 [Example 330, 2-(((5-amino-3H-[1,2,3]triazolo[4,5-b]pyridin-7-yl)oxy)methyl)-5-(6-fluoropyridin-3-yl)benzonitrile] | 1 to 100 nM
16 | Nc1cc(OCc2cccc(C(=O)N3CCOCC3)c2)c2nn[nH]c2n1 [Example 25, (3-((5-Amino-3H-[1,2,3]triazolo[4,5-b]pyridin-7-yloxy)methyl)phenyl)(morpholino)methanone] | 101 to 999 nM
17 | N#Cc1cc(-c2ccc(C3CC3)nc2)ccc1COc1cc(N)nc2[nH]nnc12 [Example 316, 2-(((5-amino-3H-[1,2,3]triazolo[4,5-b]pyridin-7-yl)oxy)methyl)-5-(6-cyclopropylpyridin-3-yl)benzonitrile] | 1 to 100 nM
18 | CN(C)CCNC(=O)c1ccc(COc2cc(N)nc3[nH]nnc23)c(Cl)c1 [Example 202, 4-((5-amino-3H-[1,2,3]triazolo[4,5-b]pyridin-7-yloxy)methyl)-3-chloro-N-(2-(dimethylamino)ethyl) benzamide] | 1 to 100 nM

Other lines, results leading:

Row | IC50 | SMILES
19 | 1 to 100 nM | Cn1nccc1-c1cccc(COc2cc(N)nc3[nH]nnc23)c1 [Example 78, 7-(3-(1-Methyl-1H-pyrazol-5-yl)benzyloxy)-3H-[1,2,3]triazolo[4,5-b]pyridin-5-amine]
20 | 1 to 100 nM | Nc1cc(OCc2cccc(-c3cccnc3)c2)c2nn[nH]c2n1 [Example 103, 7-(3-(Pyridin-3-yl)benzyloxy)-3H-[1,2,3]triazolo[4,5-b]pyridin-5-amine]
21 | 1 to 100 nM | N#Cc1cc(-c2ccc(C(F)(F)F)nc2)ccc1COc1cc(N)nc2[nH]nnc12 [Example 315, 2-(((5-amino-3H-[1,2,3]triazolo[4,5-b]pyridin-7-yl)oxy)methyl)-5-(6-(trifluoromethyl)pyridin-3-yl)benzonitrile]
22 | 1 to 100 nM | Nc1cc(OCc2ccc(-n3ncc4ccccc43)cc2OC(F)(F)F)c2nn[nH]c2n1 [Example 258, 7-((4-(1H-indazol-1-yl)-2-(trifluoromethoxy)benzyl)oxy)-3H-[1,2,3]triazolo[4,5-b]pyridin-5-amine]
23 | 1 to 100 nM | COc1ccccc1COc1cc(N)nc2[nH]nnc12 [Example 125]
24 | 1 to 100 nM | N#Cc1cnn(-c2ccc(COc3cc(N)nc4[nH]nnc34)c(OC(F)(F)F)c2)c1 [Example 270, 1-(4-(((5-amino-3H-[1,2,3]triazolo[4,5-b]pyridin-7-yl)oxy)methyl)-3-(trifluoromethoxy)phenyl)-1H-pyrazole-4-carbonitrile]
25 | 1 to 100 nM | Cc1c(COc2cc(N)nc3[nH]nnc23)cccc1-c1ccccc1 [Example 69, 7-((2-Methylbiphenyl-3-yl)methoxy)-3H-[1,2,3]triazolo[4,5-b]pyridin-5-amine]
26 | 101 to 999 nM | CS(=O)(=O)c1ccc(COc2cc(N)nc3[nH]nnc23)c(Cl)c1 [Example 246, 7-((2-chloro-4-(methylsulfonyl)benzyl)oxy)-3H-[1,2,3]triazolo[4,5-b]pyridin-5-amine]
27 | 1 to 100 nM | COc1c(COc2cc(N)nc3[nH]nnc23)cccc1C(F)(F)F [Example 26]
28 | 1 to 100 nM | COc1ccc(C(F)(F)F)cc1COc1cc(N)nc2[nH]nnc12 [Example 30, 7-(2-Methoxy-5-(trifluoromethyl)benzyloxy)-3H-[1,2,3]triazolo[4,5-b]pyridin-5-amine]
29 | 1 to 100 nM | Nc1cc(OCc2ccc(-c3ccc(CO)nc3)cc2OC(F)(F)F)c2nn[nH]c2n1 [Example 296, (5-(4-(((5-amino-3H-[1,2,3]triazolo[4,5-b]pyridin-7-yl)oxy)methyl)-3-(trifluoromethoxy)phenyl)pyridin-2-yl)methanol]
30 | 1 to 100 nM | Nc1cc(OCc2ccccc2Oc2ccccc2)c2nn[nH]c2n1 [Example 38, 7-(2-Phenoxybenzyloxy)-3H-[1,2,3]triazolo[4,5-b]pyridin-5-amine]
31 | 1 to 100 nM | Nc1cc(OCc2c(F)ccc(Br)c2Cl)c2nn[nH]c2n1 [Example 235, 7-((3-Bromo-2-chloro-6-fluorobenzyl)oxy)-3H-[1,2,3]triazolo[4,5-b]pyridin-5-amine]
32 | 1 to 100 nM | Nc1cc(OCc2ccc(OC(F)(F)F)cc2)c2nn[nH]c2n1 [Example 1, 7-(4-(Trifluoromethoxy)benzyloxy)-3H-[1,2,3]triazolo[4,5-b]pyridin-5-amine]
33 | 1 to 100 nM | Nc1cc(OCc2ccccc2OC(F)(F)F)c2nn[nH]c2n1 [Example 21, 7-(2-(Trifluoromethoxy)benzyloxy)-3H-[1,2,3]triazolo[4,5-b]pyridin-5-amine]
